From publication PMC11409717, “Three separate pathways in Rhizobium leguminosarum maintain phosphatidylcholine biosynthesis, which is required for symbiotic nitrogen fixation with clover” (Applied and Environmental Microbiology, 2024)

How the values were obtained:
PmtS2 = molecular target: T1, PmtS2 (Rhizobium leguminosarum, UniProt A0A2Z4YJT5); assay: in vitro methylation, lipid extraction and TLC with CuSO4 stain; format: biochemical; details: SAM; […] KH2PO4 pH […]; […] Triton X-100; […] °C, […] h; with or without PG or CL
T1 construct: gene DLJ82_3306; His-tagged, synthetic gene in pET28b, E. coli BL21 (DE3), Ni-IDA and SEC, one unknown co-purifying protein; 23-25 kDa
T1 sequence (A0A2Z4YJT5 1-199): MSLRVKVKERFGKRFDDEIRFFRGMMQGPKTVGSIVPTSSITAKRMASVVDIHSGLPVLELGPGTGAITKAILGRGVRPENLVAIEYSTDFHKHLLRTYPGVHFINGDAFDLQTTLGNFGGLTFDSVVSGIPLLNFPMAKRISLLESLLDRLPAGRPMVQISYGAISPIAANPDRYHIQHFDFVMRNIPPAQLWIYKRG

PmtS1 = molecular target: T2, PmtS1 (Rhizobium leguminosarum, UniProt A0A2Z4YHW5); assay: as above; format: biochemical; details: SAM; […] KH2PO4 pH […]; […] Triton X-100; […] °C, […] h; with or without PG or CL
T2 construct: gene DLJ82_3449; His-tagged, pET24b, E. coli BL21 (DE3), Ni-IDA and buffer exchange only (partly pure); 23-25 kDa
T2 sequence (A0A2Z4YHW5 1-223): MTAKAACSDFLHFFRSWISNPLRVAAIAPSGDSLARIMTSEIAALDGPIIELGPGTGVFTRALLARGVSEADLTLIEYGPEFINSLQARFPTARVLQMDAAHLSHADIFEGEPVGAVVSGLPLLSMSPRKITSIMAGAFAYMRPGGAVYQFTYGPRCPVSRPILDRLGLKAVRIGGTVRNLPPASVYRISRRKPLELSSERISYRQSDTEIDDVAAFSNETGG

Pcs = molecular target: T3, Pcs (Rhizobium redzepovicii, UniProt A0AAW8P1U5); assay: TLC of lipids from expressing E. coli cells, CuSO4 stain; format: cell-based; details: endogenous CDP-DAG, 30 °C, 20 h
T3 construct: pET28b (NdeI/XhoI), expressed in E. coli BL21 (DE3) cells, not purified
T3 sequence (A0AAW8P1U5 1-242): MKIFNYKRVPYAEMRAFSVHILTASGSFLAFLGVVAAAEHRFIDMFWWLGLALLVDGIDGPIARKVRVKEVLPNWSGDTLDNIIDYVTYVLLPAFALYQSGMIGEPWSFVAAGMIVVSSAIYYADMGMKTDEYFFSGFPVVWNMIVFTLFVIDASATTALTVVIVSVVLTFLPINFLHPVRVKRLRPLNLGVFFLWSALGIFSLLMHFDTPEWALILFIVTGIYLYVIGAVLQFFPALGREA

PmtR1 = molecular target: T4, PmtR1 (Rhizobium leguminosarum, UniProt A0A2Z4YNE2); assay: in vitro methylation, lipid extraction and TLC with CuSO4 stain; format: biochemical; details: SAM; […] KH2PO4 pH […]; […] Triton X-100; […] °C, […] h; with or without PG or CL
T4 construct: gene DLJ82_4359; His-tagged, pET24b, E. coli BL21 (DE3), Ni-IDA and SEC; 23-25 kDa
T4 sequence (A0A2Z4YNE2 1-217): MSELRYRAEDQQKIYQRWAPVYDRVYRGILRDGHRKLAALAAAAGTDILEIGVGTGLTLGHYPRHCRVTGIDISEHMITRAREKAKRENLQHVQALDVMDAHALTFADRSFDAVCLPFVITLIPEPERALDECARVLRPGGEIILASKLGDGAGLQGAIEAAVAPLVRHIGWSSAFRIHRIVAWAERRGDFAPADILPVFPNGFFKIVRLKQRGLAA

| Structure (SMILES) | in vitro methylation, lipid extraction and TLC with CuSO4 stain (PmtS2) | in vitro methylation, lipid extraction and TLC with CuSO4 stain (PmtR1) | also measured |
| --- | --- | --- | --- |
| CCCCCCCC/C=C\CCCCCCCC(=O)OC[C@H](COP(=O)(O)OCCN)OC(=O)CCCCCCC/C=C\CCCCCCCC [PE, 1,2-dioleoyl-sn-glycero-3-phosphoethanolamine] | PE was methylated to MMPE and small amounts of DMPE and PC |  | in vitro methylation, lipid extraction and TLC with CuSO4 stain (PmtS1): the conversion of only PE to MMPE by the purified protein (Fig. 4A) |
| C[N+](C)(C)CCO [choline] |  |  | TLC of lipids from expressing E. coli cells, CuSO4 stain (Pcs; M9 minimal medium with 1 mM choline): PC formation was restored upon choline supplementation (Fig. 2B) |
| CCCCCCCC/C=C\CCCCCCCC(=O)OC[C@H](COP(=O)(O)OCCN(C)C)OC(=O)CCCCCCC/C=C\CCCCCCCC [DMPE, 1,2-dioleoyl-sn-glycero-3-phosphoethanolamine-N,N-dimethyl] | DMPE was methylated to PC, and this activity was stimulated by PG | DMPE proved to be the most efficiently used substrate for PmtR1 |  |
| CN(C)CCO [DMEA, 2-(dimethylamino)ethanol] |  |  | TLC of lipids from expressing E. coli cells, CuSO4 stain (Pcs; M9 minimal medium with 1 mM DMEA): effectively converting these methylated substrates into MMPE and DMPE (Fig. 2B) |
| CCCCCCCC/C=C\CCCCCCCC(=O)OC[C@H](COP(=O)(O)OCCNC)OC(=O)CCCCCCC/C=C\CCCCCCCC [MMPE, 1,2-dioleoyl-sn-glycero-3-phosphoethanolamine-N-methyl] |  | When MMPE was employed as a substrate, only barely detectable amounts of PC were synthesized |  |
